Usually inhibition stands for the share of the control response that was lost under treatment.

The test system of one assay is Male rats. The assay is described as follows: stress-induced erosion test of Senay and Levine (anti-ulcer activity). Format: in vivo. The following applies: dosed orally, cold restraint 3 hours. The method, then:
Anti-ulcer activity was determined by the stressinduced erosion test of Senay and Levine, Proc. Soc. Exp. Biol. Med., 124, 1221-3 (1967). The procedure used was as follows.
Male rats, weighing between 80 and 120 gms. were fasted overnight with water ad lib. The rats were then divided into groups of six and dosed orally with the test drug in the form of a solution or with the vehicle alone, 0.5% carboxymethylcellulose, in a volume of 10ml/kg.
After 30 minutes the rats were inserted into aluminium restraining tubes measuring 15/8 inches in diameter by 5 inches and placed in the cold (4±1° C.) for 3 hours. Immediately after cold exposure the rats were killed with intracranial alcohol and their stomachs excised and opened along the greater curvature. Each stomach was washed gently free of contents with warm tap water and pinned out on a board. The condition of the gastric mucosa was then scored from 0 to 6 on the following scale:
The maximum possible score for each animal was 6 and for the group 36. Decrease in ulcer formation was calculated as a percentage of the control score, i.e. [formula] The statistical significance of the effect is assessed by Student's t-test.

A further assay concerns the target T1, H^+ /K^+ ATPase (Oryctolagus cuniculus, UniProt P27112).
T1 construct: Rabbit gastric glands are isolated from gastric mucosa from the corpus region of the stomach; from tissue; host or cells: rabbit isolated gastric glands (gastric mucosa, corpus region of the stomach)
The assay is described as follows: 14C-aminopyrine uptake in rabbit isolated gastric glands stimulated by DBcAMP or high K+. As to conditions: at 10^-4 M, read-out: % Inhibition to stimulation by K^+. In kind it is cell-based. The method, then:
Compounds of formula I were also tested for anti-secretory activity by their ability to inhibit the highly specific proton transporting enzyme H^+ /K^+ ATPase.
Potential H^+ /K^+ ATPase inhibitors were evaluated by a technique involving the measurement of aminopyrine accumulation in rabbit isolated gastric glands. Aminopyrine accumulates in acid-secreting cells; therefore, uptake of aminopyrine is increased by secretagogues and an inhibitor of acid secretion will reduce the response to one or more secretagogues depending upon its site of action. Compounds which reduce the response to dibutyryl cyclic adenosine monophosphate (DBcAMP) stimulation are assumed to have an intracellular site of action; and those which reduce the response to both DBcAMP and high potassium ion concentration (K^+) are thought to have an intracellular site of action at the secretory surface of the parietal cell, involving the highly specific proton-transporting enzyme, H^+ /K^+ ATPase.
The following test procedure is used: […]
Compounds are tested at a concentration of 10^-4 M, initially, and in some cases at lower concentrations, for their ability to inhibit ^14 C-aminopyrine uptake in gastric glands, stimulated by DBcAMP and high K^+ respectively. Results are expressed as the % inhibition of the maximum response to the secretagogue induced by the test compound. […]

T1 sequence (P27112 2-1035 limits assumed): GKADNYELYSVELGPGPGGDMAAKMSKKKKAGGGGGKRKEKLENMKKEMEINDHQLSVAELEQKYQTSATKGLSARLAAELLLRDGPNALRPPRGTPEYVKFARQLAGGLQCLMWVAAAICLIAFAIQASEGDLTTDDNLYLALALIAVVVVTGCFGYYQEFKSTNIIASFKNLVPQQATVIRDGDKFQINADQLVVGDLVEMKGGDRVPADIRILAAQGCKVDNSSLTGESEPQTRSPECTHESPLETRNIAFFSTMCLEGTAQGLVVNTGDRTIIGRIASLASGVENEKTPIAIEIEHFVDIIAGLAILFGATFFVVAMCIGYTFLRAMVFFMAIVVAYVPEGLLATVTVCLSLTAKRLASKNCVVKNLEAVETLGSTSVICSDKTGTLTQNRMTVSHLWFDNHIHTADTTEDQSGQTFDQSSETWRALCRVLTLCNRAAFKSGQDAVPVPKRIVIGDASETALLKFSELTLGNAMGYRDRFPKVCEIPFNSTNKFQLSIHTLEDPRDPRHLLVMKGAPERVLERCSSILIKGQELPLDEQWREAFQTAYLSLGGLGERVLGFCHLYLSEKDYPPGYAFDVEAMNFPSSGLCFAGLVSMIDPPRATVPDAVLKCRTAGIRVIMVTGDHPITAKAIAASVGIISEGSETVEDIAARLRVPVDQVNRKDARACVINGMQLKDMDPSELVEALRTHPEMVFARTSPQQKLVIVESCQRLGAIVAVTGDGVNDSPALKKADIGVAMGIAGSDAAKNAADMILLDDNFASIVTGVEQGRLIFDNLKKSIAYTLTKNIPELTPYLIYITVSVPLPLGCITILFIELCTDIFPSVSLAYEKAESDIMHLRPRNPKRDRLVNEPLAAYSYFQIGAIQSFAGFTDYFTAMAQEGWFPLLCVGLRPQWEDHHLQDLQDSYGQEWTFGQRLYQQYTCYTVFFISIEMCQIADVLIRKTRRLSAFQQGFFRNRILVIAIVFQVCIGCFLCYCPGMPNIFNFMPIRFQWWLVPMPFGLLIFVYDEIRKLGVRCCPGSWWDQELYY
T1 sequence (P18597 whole entry partner): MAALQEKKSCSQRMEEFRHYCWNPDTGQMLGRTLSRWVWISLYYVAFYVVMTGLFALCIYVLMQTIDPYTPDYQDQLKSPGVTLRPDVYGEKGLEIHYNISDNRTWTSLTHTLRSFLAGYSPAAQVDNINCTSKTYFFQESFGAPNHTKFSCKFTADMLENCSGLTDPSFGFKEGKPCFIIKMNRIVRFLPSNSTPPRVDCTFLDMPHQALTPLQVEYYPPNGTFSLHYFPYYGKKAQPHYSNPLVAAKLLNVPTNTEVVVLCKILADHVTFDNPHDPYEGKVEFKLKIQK

For the molecule `c1ccc(C2Cn3c(nc4ccccc43)S2)nc1` (centres unmarked) [Example 1, 2,3-Dihydro-2-(2-pyridyl)thiazolo[3,2-a]benzimidazole], the “Inhibition (decrease in ulcer formation as percentage of control score)” value was 86% in the assay on Male rats (dose 30 mg/kg) and 75% in the assay with Male rats (dose 100 mg/kg). For the molecule `c1ccc(C2Cn3c(nc4ccccc43)S2)cc1` (centres unmarked) [Example 3, 2,3-Dihydro-2-phenylthiazolo[3,2-a]benzimidazole], in the assay with Male rats (dose 100 mg/kg), the “Inhibition (decrease in ulcer formation as percentage of control score)” value was found to be 74%. For `Clc1cc2nc3n(c2cc1Cl)CC(c1ccccn1)S3` (centres unmarked) [Example 8, 6,7-Dichloro-2,3-dihydro-2-(2-pyridyl)thiazolo[3,2-a]benzimidazole], at H^+ /K^+ ATPase, the inhibition at 100 µM came out at 74%. Consider `Cc1cc2nc3n(c2cc1C)CC(c1ccccn1)S3` (centres unmarked) [Example 9, 2,3-Dihydro-6,7-dimethyl-2-(2-pyridyl)thiazolo[3,2-a]benzimidazole], for which the “Inhibition (decrease in ulcer formation as percentage of control score)” value in the assay with Male rats (dose 100 mg/kg) is on record as 82%.

The values above are taken from patent publication US4873237A, “2,3-dihydro- thiazolo- and thiazino- benzimidazoles as atni-hyper secretion agents” (John Wyeth & Brother Limited, priority 1983, dated 1989).
